Measurements as given in ChEMBL document CHEMBL1151352, “Antifeedant Diterpenes For the Gypsy Moth Larvae From Kalmia latifolia: Isolation and Characterization of Ten Grayanoids” (1980).

How the values were obtained:
Format in all cases: functional
Lymantria dispar [1] = experiment: Antifeedant activity in gypsy moth ten third-instar larvae at 20 ug/ml relative to control
Lymantria dispar [2] = experiment: Antifeedant activity in gypsy moth ten third-instar larvae at 15 ug/ml relative to control
Lymantria dispar [3] = experiment: Antifeedant activity in gypsy moth ten third-instar larvae at 32.5 ug/ml relative to control
Lymantria dispar [4] = experiment: Antifeedant activity in gypsy moth ten third-instar larvae at 27 ug/ml relative to control
Lymantria dispar [5] = experiment: Antifeedant activity in gypsy moth ten third-instar larvae at 17.5 ug/ml relative to control
Lymantria dispar [6] = experiment: Antifeedant activity in gypsy moth ten third-instar larvae at 60 ug/ml relative to control
Lymantria dispar [7] = experiment: Antifeedant activity in gypsy moth ten third-instar larvae at 45 ug/ml relative to control
Lymantria dispar [8] = experiment: Antifeedant activity in gypsy moth ten third-instar larvae at 2.5 ug/ml relative to control
Lymantria dispar [9] = experiment: Antifeedant activity in gypsy moth ten third-instar larvae at 30 ug/ml relative to control
Lymantria dispar [10] = experiment: Antifeedant activity in gypsy moth ten third-instar larvae at 7.5 ug/ml relative to control

Molecule `C=C1[C@@H]2CC[C@@H]3C[C@@]2(C[C@@H](O)[C@@]2(O)[C@H]1C[C@H](O)C2(C)C)C[C@@]3(C)O` has an Activity (Lymantria dispar [1]) of 121%.
Work on `C=C1[C@@H]2CC[C@@H]3[C@@H](O)[C@@]2(C[C@@H](O)[C@@]2(O)[C@H]1C[C@H](O)C2(C)C)C[C@@]3(C)O` yielded an Activity (Lymantria dispar [2]) of 65%.
With `CC1(C)[C@@H](O)C[C@H]2[C@](C)(O)[C@@H]3CC[C@@H]4[C@@H](O)[C@@]3(C[C@@H](O)[C@@]21O)C[C@@]4(C)O` [GRAYANOTOXIN III] the Activity (Lymantria dispar [3]) was 49%.
`CC(=O)O[C@@H]1[C@@H](O)[C@]23C[C@@](C)(O)[C@H](CC[C@H]2[C@@](C)(O)[C@@H]2C[C@H](O)C(C)(C)[C@@]12O)[C@H]3O` [KALMITOXIN III] showed an Activity (Lymantria dispar [4]) of 99%.
With `C=C1[C@@H]2CC[C@@H]3[C@@H](O)[C@]2(C[C@@]3(C)O)[C@H](O)[C@@H](O)[C@@]2(O)[C@H]1C[C@H](O)C2(C)C` [KALMITOXIN II] the Activity (Lymantria dispar [5]) was 86%.
`CC1(C)[C@@H](O)C[C@H]2[C@](C)(O)[C@@H]3CC[C@@H]4[C@@H](O)[C@]3(C[C@@]4(C)O)[C@H](O)[C@@H](O)[C@@]21O` [KALMITOXIN I] was tested, and the Activity (Lymantria dispar [6]) was 23%.
`CC(=O)O[C@@H]1[C@@H](O)[C@@]2(O)[C@@H]([C@@H](O)[C@H](O)C2(C)C)[C@](C)(O)[C@@H]2CC[C@@H]3[C@@H](OC(C)=O)[C@]12C[C@@]3(C)O` [KALMITOXIN VI] showed an Activity (Lymantria dispar [7]) of 106%.
For `CC(=O)O[C@@H]1[C@@H](OC(C)=O)[C@@]2(O)[C@@H]([C@@H]3O[C@@H]3C2(C)C)[C@](C)(O)[C@@H]2CC[C@@H]3[C@@H](O)[C@]12C[C@@]3(C)O` [KALMITOXIN V], the Activity (Lymantria dispar [8]) was 92%.
In the case of `CC(=O)O[C@@H]1[C@@H](O)[C@]23C[C@@](C)(O)[C@H](CC[C@H]2[C@@](C)(O)[C@@H]2[C@@H]4O[C@@H]4C(C)(C)[C@@]12O)[C@H]3O` [KALMOTOXIN IV], the Activity (Lymantria dispar [9]) is reported as 47%.
With `CC(=O)O[C@@H]1[C@@H](O)[C@@]23C[C@@H](CC[C@H]2[C@@](C)(O)[C@@H]2[C@@H]4O[C@@H]4C(C)(C)[C@@]12O)[C@](C)(O)C3` [LYONIOL A] the Activity (Lymantria dispar [10]) was 95%.
